This note sets out measurements from BindingDB's records for doi:10.7270/Q2X065GM (Sanford-Burnham Center for Chemical Genomics, 2008).

Structures are written as SMILES. pIC50: −log10 of the molar value.

For the experiment, the target named is T1, Bcl-2-related protein A1 (Mus musculus, UniProt Q07440).
T1 sequence (Q07440 whole entry): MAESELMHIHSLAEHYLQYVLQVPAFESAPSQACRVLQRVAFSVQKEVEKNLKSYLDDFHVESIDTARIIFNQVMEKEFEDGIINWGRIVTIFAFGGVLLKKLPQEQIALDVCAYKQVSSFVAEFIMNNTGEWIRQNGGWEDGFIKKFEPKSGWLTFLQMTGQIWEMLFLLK
Description: Bfl-1 binding inhibitors, SAR follow-up, biochemical, fluorescence polarization (AID 1070). For orientation: Polarisation of emitted light reports the rotation of a fluorescent probe.

As for `Cc1ccc(N=C2C(=O)N(c3ccc(C)cc3)C(=O)C2Cl)cc1` (configuration not stated) [3-chloranyl-1-(4-methylphenyl)-4-[(4-methylphenyl)amino]pyrrole-2,5-dione], the pIC50 (usually the negative decadic logarithm of the IC50, by convention in mol/L) is 5.77.
The figure for `COCC=Nc1c(Cl)c(O)n(-c2ccc(Cl)c(Cl)c2)c1O` [3-chloranyl-1-(3,4-dichlorophenyl)-4-(2-methoxyethylamino)pyrrole-2,5-dione] is 4.90.
